# According to US4895937A, “5-ioso-2-pyrimidinone nucleoside” (The Research Foundation of State University of New York, priority 1988, dated 1990):
# Values joined by “and” are separate entries in the source; they are usually repeats but may differ in a detail not shown here. Identical values can stand only once. “Also recorded” adds a separate entry of the source. Like-named read-outs stand apart in the source and are kept apart here.
# Assays:
# HSV-2 (333 strain) = test: In vivo test of IPdR in mice implanted with HSV-2 (333 strain), survival (Example 4); set-up: species or system Swiss Webster Balb/C mice; details: 100 mg/kg twice daily for 2.5 days; for DAYS--SURVIVAL: deaths: 5 mice; for long term survivors (>30 days): out of 5 mice
# Method: The substituted pyrimidinone of Example 3, 1-(2-deoxy)-β-D-ribofuranosyl)-5-iodo-2-pyrimidinone (IPdR) was tested in vivo. Three groups of five Swiss Webster Balb/C mice weighing from 19 to 23 grams were implanted with HSV-2 (333 strain) with a virus load of 5×10^5 plaque forming units.
# Drug administration began one day following virus implant. The IPdR was administered subcutaneously to a first group of mice and intraperitoneally to a second group of mice. The third group of mice which performed as controls were not given any IPdR. The dosage of IPdR was at the rate of 100 mg/kg twice daily for 2.5 days for a total of 5 doses.
# [1] = Cytotoxicity / cell proliferation in KB cells (Example 8 Part B); format: cell-based, human; details: human, kb cells, 72 hour exposure
# Method: (§1) To compare the toxicity of FPdR and IPdR human nasopharyngeal carcinoma KB cells obtained from the American Type Culture Collection were maintained as a monolayer in RPMI 1640 supplemented with 5% fetal bovine serum, 10 mM HEPES buffer (pH 7.4) and karamycin (100 μg/ml). Cells were maintained at 37° C. in a humidified atmosphere of 5% CO2 in air. Cell numbers were determined with an electronic particle counter (Particle Data, Inc., Elmhurst, Ill.).
# (§2) For determination of drug effect on cell proliferation, cells were harvested from rapidly proliferting cultures by treatment with pancreation. Cell number was determined and plated in 24 well (6 mm well diameter) plates at a concentratin of 5×10^3 cells/ml. Drug exposures were initiated by a complete change of medium after overnight incubation. Following a 72 hour drug exposure […]. of thiazolyl blue was added and incubated for a further 4 hour period. The media from the plates was aspirated completely and […] DMSO was added to each well. The plates were placed on a shaker for 5 minutes and the blue solution transferred to 96 well plates and read at 540 nm with a scanning multiwell spectrophotometer (Biotek Instruments, Inc. Burlington, Vt.).
# [2] = system: human nasopharyngeal carcinoma KB cells; test: as above; format: cell-based
# Method: as §1, §2
# HSV-2 (Strain 333) = test: Antiviral activity in HSV-2 infected mice by various routes (Example 9); format: in vivo, Swiss-Webster female mice; details: for % ILS: excluding 45 day survivors
# Method: The drugs were administered once a day for five days or twice daily (12 hour intervals) for 2.5 days beginning 24 hours postinfection. Mean body weight determinations of drug treated and control animals were made during the treatment period as an indicator of sublethal toxicity. Deaths were recorded through day 45.
# HSV-1 (KOS) = test: Antiherpes activity, HSV-1 (KOS) (Example 10); format: cell-based; details: Human alphaherpesvirus 1; 100 μM; read-out: plaque-forming units as % of control
# Method: (§3) IPdR and 5-bromo-2-pyrimidinone-2-deoxyribonucleoside (BrPdR) were tested for antiherpes activity according to procedures described by Cheng, Y.-C., et al. Antimicrob. Agents Chemother (1976) 10, 119.
# HSV-1 (CLl0l) = test: Antiherpes activity, HSV-1 (CLl0l) (Example 10); format: cell-based; details: Human alphaherpesvirus 1; 100 μM; read-out: plaque-forming units as % of control
# Method: as §3
# HSV-2 (333) = test: Antiherpes activity, HSV-2 (333) (Example 10); format: cell-based; details: Human alphaherpesvirus 2; 100 μM; read-out: plaque-forming units as % of control
# Method: as §3
# HSV-2 (CEU-G) = test: Antiherpes activity, HSV-2 (CEU-G) (Example 10); format: cell-based; details: Human alphaherpesvirus 2, read-out: plaque-forming units as % of control
# Method: as §3
# [3] = system: ACG (S1), acyclovir resistant strain of HSV1; test: Antiherpes activity, acyclovir resistant strain of HSV1 (S1) (Example 10); format: cell-based, HSV-1
# Method: as §3
# [4] = system: ACG (Tr7), acyclovir resistant strain of HSV1; test: Antiherpes activity, acyclovir resistant strain of HSV1 (Tr7) (Example 10); format: cell-based, HSV-1; details: Human alphaherpesvirus 1, read-out: plaque-forming units as % of control
# Method: as §3
# [5] = system: BVdU resistant strain of HSV-1; test: Antiherpes activity, BVdU resistant strain (Example 10); format: cell-based; details: Human alphaherpesvirus 1, read-out: plaque-forming units as % of control
# Method: as §3
# PFA-resistant strains = test: Antiherpes activity, PFA-resistant strain (Example 10); format: cell-based
# Method: as §3
# [6] = system: HSV-1 and HSV-2 strains (herpes virus group); test: Antiherpes activity, overall statement; format: cell-based
# Method: as §3
# [7] = system: virus-specific thymadine kinase; test: Binding to the virus-specific thymidine kinase (Example 10); details: compared with BrPdR
# [8] = system: acyclovir (ACG) and BVdU resistant strains of HSV-1; test: Antiherpes activity against acyclovir (ACG) and BVdU resistant strains of HSV-1, overall statement; format: cell-based
# Method: as §3
# [9] = 100 mg/kg oral, 2 × 21/2, 72 hours after implant
# [10] = 100 mg/kg oral, 2 × 21/2, innoculation dose 1 × 10^6 PFU
smiles,measurement,setting,value
"O=c1ncc(I)cn1[C@H]1C[C@H](O)[C@@H](CO)O1 [IPdR, 1-(2-Deoxy-β-D-Ribofuranosyl)-5-iodo-2-pyrimidinone]",DAYS--SURVIVAL: deaths,HSV-2 (333 strain); intraperitoneal,1 died on day 17
same,long term survivors (>30 days),HSV-2 (333 strain); intraperitoneal,4
same,DAYS--SURVIVAL: deaths,"HSV-2 (333 strain); subcutaneous, 100 mg/kg",1 died on day 11 and 2 died on day 13
same,long term survivors (>30 days),HSV-2 (333 strain); subcutaneous,2
same,DAYS--SURVIVAL: days average,"HSV-2 (333 strain); subcutaneous, control 9.4 days average",12 days
same,"activity at 72 h, 100 µM","[1]; 100 μm, read-out: % Growth",75%
same,"activity at 72 h, 200 µM","[1]; 200 μm, read-out: % Growth",80%
same,IC50 at 72 h,"[1]; cytotoxicity, read-out: ID50",> 200 µM
same,toxicity against the host cells,[2],low level of toxicity for the host cell
same,Survivors/Total,"HSV-2 (Strain 333); 10 mg/kg IP, 2 × 21/2",0/5
same,percent survival,"HSV-2 (Strain 333); 10 mg/kg IP, 2 × 21/2",0%
same,"Mean Survival Time (days), of the mice that died","HSV-2 (Strain 333); 10 mg/kg IP, 2 × 21/2, control 9.3 ± 1.1",12.8 ± 3.6 days
same,% ILS,"HSV-2 (Strain 333); 10 mg/kg IP, 2 × 21/2",133%
same,Survivors/Total,"HSV-2 (Strain 333); 10 mg/kg oral, 2 × 21/2",0/5
same,percent survival,"HSV-2 (Strain 333); 10 mg/kg oral, 2 × 21/2",0%
same,"Mean Survival Time (days), of the mice that died","HSV-2 (Strain 333); 10 mg/kg oral, 2 × 21/2, control 10.6 ± 2.1",12.8 ± 3.6 days
same,% ILS,"HSV-2 (Strain 333); 10 mg/kg oral, 2 × 21/2",123%
same,Survivors/Total,"HSV-2 (Strain 333); 40 mg/kg IP, 2 × 21/2",2/5
same,percent survival,"HSV-2 (Strain 333); 40 mg/kg IP, 2 × 21/2",40%
same,"Mean Survival Time (days), of the mice that died","HSV-2 (Strain 333); 40 mg/kg IP, 2 × 21/2, control 9.3 ± 1.1",10.0 ± 1.0 days
same,% ILS,"HSV-2 (Strain 333); 40 mg/kg IP, 2 × 21/2",108%
same,Survivors/Total,"HSV-2 (Strain 333); 40 mg/kg oral, 2 × 21/2",2/5
same,percent survival,"HSV-2 (Strain 333); 40 mg/kg oral, 2 × 21/2",40%
same,Mean Survival Time,"HSV-2 (Strain 333); 40 mg/kg oral, 2 × 21/2, control 10.6 ± 2.1",10.0 ± 1.0 days
same,% ILS,"HSV-2 (Strain 333); 40 mg/kg oral, 2 × 21/2",94%
same,Survivors/Total,"HSV-2 (Strain 333); 100 mg/kg IP, 1 × 5",7/10
same,percent survival,"HSV-2 (Strain 333); 100 mg/kg IP, 1 × 5",70%
same,"Mean Survival Time (days), of the mice that died","HSV-2 (Strain 333); 100 mg/kg IP, 1 × 5, control 9.6 ± 1.1",12.0 ± 4.4 days
same,% ILS,"HSV-2 (Strain 333); 100 mg/kg IP, 1 × 5",129%
same,Survivors/Total,"HSV-2 (Strain 333); 100 mg/kg IP, 2 × 21/2",6/10
same,percent survival,"HSV-2 (Strain 333); 100 mg/kg IP, 2 × 21/2",60%
same,"Mean Survival Time (days), of the mice that died","HSV-2 (Strain 333); 100 mg/kg IP, 2 × 21/2, control 9.3 ± 1.1",12.5 ± 1.3 days
same,% ILS,"HSV-2 (Strain 333); 100 mg/kg IP, 2 × 21/2",135%
same,Survivors/Total,"HSV-2 (Strain 333); 100 mg/kg SC, 1 × 5",2/5
same,percent survival,"HSV-2 (Strain 333); 100 mg/kg SC, 1 × 5",40%
same,"Mean Survival Time (days), of the mice that died","HSV-2 (Strain 333); 100 mg/kg SC, 1 × 5, control 9.4 ± 1.1",12.3 ± 1.2 days
same,% ILS,"HSV-2 (Strain 333); 100 mg/kg SC, 1 × 5",131%
same,Survivors/Total,"HSV-2 (Strain 333); 100 mg/kg oral, 2 × 21/2",20/20
same,percent survival,"HSV-2 (Strain 333); 100 mg/kg oral, 2 × 21/2",100%
same,Survivors/Total,HSV-2 (Strain 333); [9],5/5
same,percent survival,HSV-2 (Strain 333); [9],100%
same,Mean Survival Time,"HSV-2 (Strain 333); 100 mg/kg oral, 2 × 21/2, control 9.8 ± 1.3",> 45 days
same,Mean Survival Time,"HSV-2 (Strain 333); 100 mg/kg oral, 2 × 21/2, control 10.6 ± 2.1",> 45 days
same,Survivors/Total,HSV-2 (Strain 333); [10],4/5
same,percent survival,HSV-2 (Strain 333); [10],80%
same,"Mean Survival Time (days), of the mice that died","HSV-2 (Strain 333); 100 mg/kg oral, 2 × 21/2, innoculation dose 1 × 10^6 PFU, control 10.0 ± 1.2",14.0 days
same,% ILS,HSV-2 (Strain 333); [10],140%
same,toxicity to the host,"HSV-2 (Strain 333); oral, intraperitoneal or subcutaneous",without significant toxicity to the host
same,activity against HSV-2 in vivo / life span of the host,HSV-2 (Strain 333); summary of Table 5,active against HSV-2 in vivo; also recorded: can significantly increase
same,activity at 100 µM,HSV-1 (KOS),0.27%
same,activity at 100 µM,HSV-1 (CLl0l),1.6%
same,activity at 100 µM,HSV-2 (333),2.8%
same,activity at 100 µM,HSV-2 (CEU-G),9.3%
same,activity at 100 µM,"[3]; Human alphaherpesvirus 1, read-out: plaque-forming units as % of control",22%
same,cross resistance of the more highly ACG-resistant strain,[3]; S1 compared with Tr7,more cross resistance
same,activity at 100 µM,[4],2.6%
same,activity at 100 µM,[5],14%
same,activity against PFA-resistant strains,PFA-resistant strains,retained full activity
same,activity at 100 µM,"PFA-resistant strains; 100 μM, read-out: plaque-forming units as % of control",0.1%
same,antiherpes / anti-viral activity (words),[6],significant antiherpes activities; also recorded: showing the higher activity
same,antiherpes / anti-viral activity (words),[6]; listed as 1-(2-Deoxy-β-D-ribofuranosyl)-5-(iodo)-2-pyrimidinone,high level of anti-viral activity
same,binding to the virus-specific thymadine kinase,[7],stronger binding to the virus-specific thymadine kinase
same,activity against acyclovir (ACG) and BVdU resistant strains,[8],somewhat reduced but still significant activity
